Source: ChEMBL document CHEMBL3881527, “Multi-functional small molecules as anti-proliferative agents” (2008)
Each block holds one compound with its values, some of them ahead of it. Calls of active or inactive are those of the source. No cut-off for these calls is given here.

Tests used:
[1] = Solubility of the compound at pH 3 to 4; type: physicochemical; settings: buffer
[2] = Chemical stability in diluted solution; type: physicochemical
[3] = Solubility of the compound at pH 4 to 5; type: physicochemical; settings: buffer
[4] = Solubility of the compound at pH 2 to 3; type: physicochemical; settings: buffer
[5] = Drug uptake in iv dosed Sprague-Dawley rat plasma administered in 30% captisol as 5 mins infusion; type: ADME, organism-based; settings: in vivo
Colon = experiment: Cmax in CD1 mouse colon at 20 mg/kg, iv administered in 30% captisol as 2 mins infusion by LC/MS/MS analysis; type: ADME, organism-based; design: dose 20 mg/kg, route intravenous; settings: in vivo
[6] = target: Vascular endothelial growth factor receptor 2 (Homo sapiens, UniProt P35968); experiment: Inhibition of N-terminal GST-His6-thrombin cleavage site-fused human VEGFR2 (Asp805 to Val1356 residues) expressed in baculovirus expression system using biotinylated gastrin precursor at Tyr87 as substrate preincubated for 5 mins followed by substrate addition measured after 30 mins by DELFIA method
Sequence of Vascular endothelial growth factor receptor 2 (P35968 whole entry, the tested form may be a part): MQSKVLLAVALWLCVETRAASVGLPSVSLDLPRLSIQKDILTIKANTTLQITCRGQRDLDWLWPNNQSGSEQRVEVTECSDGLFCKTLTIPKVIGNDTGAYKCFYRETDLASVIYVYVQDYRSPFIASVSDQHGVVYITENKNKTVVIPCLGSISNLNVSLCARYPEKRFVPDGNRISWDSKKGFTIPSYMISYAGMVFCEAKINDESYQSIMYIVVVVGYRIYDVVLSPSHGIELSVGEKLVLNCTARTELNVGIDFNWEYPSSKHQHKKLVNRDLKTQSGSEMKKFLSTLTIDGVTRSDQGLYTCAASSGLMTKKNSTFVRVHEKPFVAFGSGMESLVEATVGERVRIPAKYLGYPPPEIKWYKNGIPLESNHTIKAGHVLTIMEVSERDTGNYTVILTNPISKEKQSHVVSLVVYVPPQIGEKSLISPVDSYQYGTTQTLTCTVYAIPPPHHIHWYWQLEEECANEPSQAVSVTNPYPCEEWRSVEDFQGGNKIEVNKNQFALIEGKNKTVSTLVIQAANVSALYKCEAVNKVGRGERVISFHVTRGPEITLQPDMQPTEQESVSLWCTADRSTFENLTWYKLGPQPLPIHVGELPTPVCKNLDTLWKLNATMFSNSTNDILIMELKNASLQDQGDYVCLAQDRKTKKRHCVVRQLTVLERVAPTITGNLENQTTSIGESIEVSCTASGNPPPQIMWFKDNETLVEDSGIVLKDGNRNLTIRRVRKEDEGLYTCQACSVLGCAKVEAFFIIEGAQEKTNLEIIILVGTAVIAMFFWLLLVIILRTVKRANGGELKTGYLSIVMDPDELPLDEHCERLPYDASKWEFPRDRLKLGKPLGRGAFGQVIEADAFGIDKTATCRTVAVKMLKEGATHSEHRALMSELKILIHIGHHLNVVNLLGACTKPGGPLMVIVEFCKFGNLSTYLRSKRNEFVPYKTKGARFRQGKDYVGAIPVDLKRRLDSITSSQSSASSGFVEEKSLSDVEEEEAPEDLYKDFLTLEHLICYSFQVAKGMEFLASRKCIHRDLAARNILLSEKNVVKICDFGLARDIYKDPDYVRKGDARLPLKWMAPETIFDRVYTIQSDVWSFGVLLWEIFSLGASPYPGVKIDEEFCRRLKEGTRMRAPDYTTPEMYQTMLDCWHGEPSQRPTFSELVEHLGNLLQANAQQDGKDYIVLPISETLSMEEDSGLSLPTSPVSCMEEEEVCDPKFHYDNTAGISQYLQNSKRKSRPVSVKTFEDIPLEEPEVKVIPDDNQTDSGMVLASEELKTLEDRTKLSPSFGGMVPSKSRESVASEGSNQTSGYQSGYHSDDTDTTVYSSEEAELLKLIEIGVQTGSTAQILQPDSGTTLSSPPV

[7] = target: Platelet-derived growth factor receptor beta (Homo sapiens, UniProt P09619); experiment: Inhibition of N-terminal GST-His6-thrombin cleavage site-fused human PDGFRbeta (Arg561 to Leu1106 residues) assessed as decrease in biotinylated FLT3 phosphorylation at Tyr589 preincubated for 5 mins followed by substrate addition measured after 30 mins by DELFIA method
Sequence of Platelet-derived growth factor receptor beta (P09619 whole entry, the tested form may be a part): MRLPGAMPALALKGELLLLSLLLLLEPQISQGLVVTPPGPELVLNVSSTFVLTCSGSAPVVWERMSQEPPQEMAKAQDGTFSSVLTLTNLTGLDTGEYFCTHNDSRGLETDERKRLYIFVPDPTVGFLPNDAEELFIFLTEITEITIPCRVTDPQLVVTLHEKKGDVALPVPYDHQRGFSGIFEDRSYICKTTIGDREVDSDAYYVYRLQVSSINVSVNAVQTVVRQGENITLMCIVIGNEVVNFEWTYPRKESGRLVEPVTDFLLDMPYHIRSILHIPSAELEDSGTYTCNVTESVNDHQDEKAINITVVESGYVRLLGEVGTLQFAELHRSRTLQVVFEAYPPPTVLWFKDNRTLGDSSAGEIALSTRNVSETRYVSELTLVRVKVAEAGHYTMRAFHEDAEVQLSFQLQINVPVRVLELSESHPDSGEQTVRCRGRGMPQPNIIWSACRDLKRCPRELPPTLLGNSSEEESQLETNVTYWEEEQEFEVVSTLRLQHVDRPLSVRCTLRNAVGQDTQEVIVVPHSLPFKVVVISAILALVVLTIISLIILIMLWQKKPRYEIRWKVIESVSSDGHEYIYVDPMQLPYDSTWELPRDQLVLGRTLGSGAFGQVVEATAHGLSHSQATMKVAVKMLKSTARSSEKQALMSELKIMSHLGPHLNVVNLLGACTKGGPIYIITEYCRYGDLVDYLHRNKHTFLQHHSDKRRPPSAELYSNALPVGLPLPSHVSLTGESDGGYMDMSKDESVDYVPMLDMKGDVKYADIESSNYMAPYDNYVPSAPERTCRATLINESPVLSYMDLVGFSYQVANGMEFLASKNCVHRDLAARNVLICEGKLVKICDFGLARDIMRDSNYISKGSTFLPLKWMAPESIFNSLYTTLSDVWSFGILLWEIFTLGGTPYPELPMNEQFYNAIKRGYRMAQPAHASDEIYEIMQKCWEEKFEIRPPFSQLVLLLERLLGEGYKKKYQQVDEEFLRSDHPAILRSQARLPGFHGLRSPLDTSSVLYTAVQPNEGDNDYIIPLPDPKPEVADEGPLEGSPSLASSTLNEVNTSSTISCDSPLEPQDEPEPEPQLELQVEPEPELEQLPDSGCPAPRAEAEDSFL

[8] = target: Mast/stem cell growth factor receptor Kit (Homo sapiens, UniProt P10721); experiment: Inhibition of human N-terminal GST-tagged human c-Kit (Thr544 to Val976 residues) expressed in baculovirus expression system assessed as decrease in biotinylated KDR phosphorylation at Tyr996 preincubated for 5 mins followed by substrate addition measured after 30 mins by DELFIA method
Sequence of Mast/stem cell growth factor receptor Kit (P10721 whole entry): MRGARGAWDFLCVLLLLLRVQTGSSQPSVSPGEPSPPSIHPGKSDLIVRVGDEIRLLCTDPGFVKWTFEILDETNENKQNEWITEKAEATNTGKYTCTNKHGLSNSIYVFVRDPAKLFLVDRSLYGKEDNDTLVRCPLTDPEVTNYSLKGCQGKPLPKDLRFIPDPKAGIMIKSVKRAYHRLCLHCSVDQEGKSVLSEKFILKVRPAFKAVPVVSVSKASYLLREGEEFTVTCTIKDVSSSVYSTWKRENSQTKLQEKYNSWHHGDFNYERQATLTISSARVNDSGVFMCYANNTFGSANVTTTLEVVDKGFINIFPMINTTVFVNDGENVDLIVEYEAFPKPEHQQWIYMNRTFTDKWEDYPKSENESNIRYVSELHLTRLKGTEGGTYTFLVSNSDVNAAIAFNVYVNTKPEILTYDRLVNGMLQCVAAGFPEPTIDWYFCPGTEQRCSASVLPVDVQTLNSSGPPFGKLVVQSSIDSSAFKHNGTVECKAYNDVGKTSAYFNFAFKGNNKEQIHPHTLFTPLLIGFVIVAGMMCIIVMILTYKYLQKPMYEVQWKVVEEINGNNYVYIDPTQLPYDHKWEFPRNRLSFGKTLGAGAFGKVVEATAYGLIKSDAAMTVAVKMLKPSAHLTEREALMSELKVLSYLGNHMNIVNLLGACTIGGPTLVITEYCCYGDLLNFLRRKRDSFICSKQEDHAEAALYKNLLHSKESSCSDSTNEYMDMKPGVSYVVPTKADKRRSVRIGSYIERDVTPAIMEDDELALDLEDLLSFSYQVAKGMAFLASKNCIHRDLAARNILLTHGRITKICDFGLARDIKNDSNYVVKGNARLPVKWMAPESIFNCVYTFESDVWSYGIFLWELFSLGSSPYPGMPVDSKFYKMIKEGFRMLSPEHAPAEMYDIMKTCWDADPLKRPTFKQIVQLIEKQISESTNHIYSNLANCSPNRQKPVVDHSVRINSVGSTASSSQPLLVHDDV

[9] = target: Serine/threonine-protein kinase B-raf (Homo sapiens, UniProt P15056); experiment: Inhibition of N-terminal GST-tagged recombinant human B-Raf ([…] residues) expressed in baculovirus infected Sf21 insect cells using MEK1 as substrate preincubated for 5 mins followed by substrate addition measured after 30 mins by DELFIA
Sequence of Serine/threonine-protein kinase B-raf (P15056 whole entry): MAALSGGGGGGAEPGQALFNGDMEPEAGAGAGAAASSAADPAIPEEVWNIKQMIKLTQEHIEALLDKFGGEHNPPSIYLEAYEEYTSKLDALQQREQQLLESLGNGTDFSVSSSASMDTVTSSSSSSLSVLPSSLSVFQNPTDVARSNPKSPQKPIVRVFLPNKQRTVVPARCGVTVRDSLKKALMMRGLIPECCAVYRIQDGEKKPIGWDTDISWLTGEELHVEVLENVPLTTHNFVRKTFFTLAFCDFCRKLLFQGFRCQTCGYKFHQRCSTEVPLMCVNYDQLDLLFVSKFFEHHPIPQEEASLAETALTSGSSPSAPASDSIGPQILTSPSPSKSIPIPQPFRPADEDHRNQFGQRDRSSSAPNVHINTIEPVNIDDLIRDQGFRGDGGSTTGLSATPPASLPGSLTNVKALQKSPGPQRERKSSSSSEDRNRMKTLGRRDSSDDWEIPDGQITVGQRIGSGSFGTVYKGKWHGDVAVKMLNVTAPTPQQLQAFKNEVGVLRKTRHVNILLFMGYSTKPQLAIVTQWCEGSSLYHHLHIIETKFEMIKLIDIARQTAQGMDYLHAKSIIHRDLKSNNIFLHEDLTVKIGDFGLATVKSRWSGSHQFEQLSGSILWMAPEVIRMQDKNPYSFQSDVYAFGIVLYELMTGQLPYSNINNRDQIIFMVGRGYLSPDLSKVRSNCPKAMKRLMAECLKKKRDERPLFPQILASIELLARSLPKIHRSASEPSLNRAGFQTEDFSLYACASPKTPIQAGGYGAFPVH

[10] = Cytotoxicity against human CFPAC cells assessed as growth inhibition by measuring ATP levels after 72 hrs by ATPlite assay; type: functional, cell-based
HCT-116 [11] = experiment: Induction of apoptosis in human HCT116 cells assessed as increase in caspase3/7 activity after 24 hrs; type: functional, cell-based; settings: HCT-116, 24 h
SK-BR-3 = experiment: Induction of apoptosis in human SKBR3 cells assessed as increase in caspase3/7 activity after 24 hrs; type: functional, cell-based; settings: SK-BR-3, 24 h
[12] = Antitumor activity against human A549 cells xenografted in nu/nu athymic mouse assessed as increase in tumor size at 120 mg/kg administered in 30% captisol after 24 hrs (reference value: 240%); type: functional
[13] = Toxicity in CD1 mouse assessed as change in body weight up to 200 mg/kg, iv administered as single dose in 30% captisol measured over 9 days; type: organism-based; settings: in vivo, 216 h
[14] = Toxicity in CD1 mouse assessed as change in body weight up to 100 mg/kg, ip administered as repeated dosing in 30% captisol measured over 7 days; type: organism-based; settings: in vivo, 168 h
[15] = Toxicity in Sprague-Dawley rat assessed as change in body weight up to 200 mg/kg, ip administered as single dose in 30% captisol measured over 8 days; type: organism-based; settings: in vivo, 192 h
A-431 = experiment: Antitumor activity against human A431 cells xenografted in nu/nu athymic mouse assessed as tumor growth inhibition at 6 to 48 mg/kg, ip qd administered for 21 days measured twice weekly during compound dosing; type: functional, organism-based
NCI-H358 = experiment: Antitumor activity against human NCI-H358 cells xenografted in nu/nu athymic mouse assessed as tumor growth inhibition at 15 to 60 mg/kg, iv as 2 mins infusion administered via 7 days on 7 days off and 5 days on regimen measured twice weekly during compound dosing; type: functional, organism-based
NCI-H292 = experiment: Antitumor activity against human NCI-H292 cells xenografted in nu/nu athymic mouse assessed as tumor growth inhibition at 15 to 60 mg/kg, iv as 2 mins infusion administered via 7 days on 7 days off and 5 days on regimen measured twice weekly during compound dosing; type: functional, organism-based
BXPC-3 = experiment: Antitumor activity against human BxPC3 cells xenografted in nu/nu athymic mouse assessed as tumor growth inhibition at 10 to 40 mg/kg, iv as 2 mins infusion administered via 7 days on 7 days off and 2 days on regimen measured twice weekly during compound dosing; type: functional, organism-based
PC-3 = experiment: Antitumor activity against human PC3 cells xenografted in nu/nu athymic mouse assessed as tumor growth inhibition at 10 to 40 mg/kg, iv as 2 mins infusion administered via 7 days on 7 days off and 5 days on regimen measured twice weekly during compound dosing; type: functional, organism-based
HCT-116 [16] = experiment: Antitumor activity against human HCT116 cells xenografted in nu/nu athymic mouse assessed as tumor growth inhibition at 15 to 60 mg/kg, iv as 2 mins infusion administered via 5 days on 2 days off and 5 days on regimen measured twice weekly during compound dosing; type: functional, organism-based
HPAC = experiment: Antitumor activity against human HPAC cells xenografted in nu/nu athymic mouse assessed as tumor growth inhibition at 120 mg/kg, iv or ip administered in 30% captisol; type: functional, organism-based

solubility [1]: 60 mg/mL | Stability [2]: > 12 h
Structure (SMILES): C#Cc1cccc(Nc2ncnc3cc(OC)c(OCCCCCCC(=O)NO)cc23)c1.O=C(O)C(O)C(O)C(=O)O

solubility [3]: 25 mg/mL | Stability [2]: > 12 h
Structure (SMILES): C#Cc1cccc(Nc2ncnc3cc(OC)c(OCCCCCCC(=O)NO)cc23)c1.O=C(O)CC(O)(CC(=O)O)C(=O)O

solubility [4]: 25 mg/mL | Stability [2]: > 12 h | Drug uptake [5]: Dose-dependent effect | Cmax (Colon): 8.5 µM
Structure (SMILES): C#Cc1cccc(Nc2ncnc3cc(OC)c(OCCCCCCC(=O)NO)cc23)c1.Cl

IC50 [6]: ≤ 100 nM | IC50 [7]: 100 to 1000 nM | IC50 [8]: ≤ 100 nM | IC50 [9]: 1000 to 10000 nM
Structure (SMILES): O=C(CCCCCNC(=O)c1cc(Oc2ccc(NC(=O)Nc3ccc(Cl)c(C(F)(F)F)c3)cc2)ccn1)NO

IC50 (HCT-116 [11]): 170 nM | IC50 (SK-BR-3): 920 nM
Structure (SMILES): C#Cc1cccc(Nc2ncnc3cc(OC)c(OCCCCCCC(=O)NO)cc23)c1 [CUDC-101]
IC50 [10]: 100 to 1000 nM | Activity [12]: 150% | Activity [13]: Non-Toxic | Activity [14]: Non-Toxic | Activity [15]: Non-Toxic

Structure (SMILES): C#Cc1cccc(Nc2ncnc3cc(OC)c(OCCCCCCC(=O)NO)cc23)c1
TGI (A-431): Active | TGI (NCI-H358): Active | TGI (NCI-H292): Active | TGI (BXPC-3): Active | TGI (PC-3): Active | TGI (HCT-116 [16]): Active | TGI (HPAC): Active
